From patent US8847018B2, “Plants tolerant to HPPD inhibitor herbicides” (Bayer CropScience AG, priority 2009, dated 2014)
Read-outs that look alike come from different tables or passages of the source.

Legend:
[1] = tested on: tobacco plants containing Arabidopsis HPPD; experiment: Glasshouse trial, herbicidal damage on T1 tobacco; type: in vivo, Nicotiana tabacum; conditions: 7 DAT, 100 g AI/ha spray; Arabidopsis HPPD line 258, single T1 plants
Description: T0 Tobacco plants containing either the gene from Arabidopsis coding for HPPD or the gene FMP22e from Rhodococcus sp. (strain RHA1), isolate ro03041 coding for FMP22 HPPD, or the gene FMP23e from Rhodococcus sp. (strain RHA1), isolate ro02040 mentioned above (Example 3), were transferred to the glasshouse (28/20° C.), to develop further and produce seeds. Those seeds were harvested and put on soil (ED73 mixed with sand and osmocote Pro) to germinate in the glasshouse (28/20° C.). Three to four weeks later, plantlets were transferred to single pots containing the soil mentioned above. Two weeks later, plants of a size 4-6 cm diameter were sprayed with either • tembotrione at 100 gAl/ha prepared from a WP20 (wettable powder 20%) formulation supplemented with ammonium sulfate and methyl ester raps oil, or • isoxaflutole at 100 gAl/ha prepared from a WP20 formulation supplemented with ammonium sulfate and methyl ester raps oil, or • bicyclopyrone at 100 gAl/ha prepared from a WP20 formulation supplemented with ammonium sulfate and methyl ester raps oil, or • “blind formulation” made from a WP20 formulation without active ingredient (Al) supplemented with ammonium sulfate and methyl ester raps oil, and were then transferred to a growth chamber with adequate light conditions (20000 Lux).

[2] = tested on: transgenic soybean shoots, FMP22t-h; experiment: Soybean shoot greening on isoxaflutole selection; type: cell-based; conditions: isoxaflutole as selection marker
Excerpt: (§1) Soybean transformation is achieved using methods well known in the art, such as the one described using the Agrobacterium tumefaciens mediated transformation soybean half-seed explants described by Paz et al. (2006, Plant cell Rep. 25:206). Transformants were identified using Isoxaflutole as selection marker. The appearance of green shoots was observed, and documented as an indicator of tolerance to the herbicide isoxaflutole.

[3] = tested on: transgenic soybean shoots, FMP23t-h; experiment: Soybean shoot greening on isoxaflutole selection; type: cell-based; conditions: isoxaflutole as selection marker
Excerpt: as §1

[4] = tested on: wild-type soybean shoots; experiment: Soybean shoot greening on isoxaflutole selection; type: cell-based; conditions: same amount of isoxaflutole
Excerpt: as §1

[5] = biological target: (UniProt Q0SF39); experiment: HPLC assay of HPPD in vitro kinetic properties; type: biochemical, Rhodococcus sp. (strain RHA1), isolate ro02040
[6] = biological target: (UniProt Q0SC92); experiment: biochemical; type: biochemical, Rhodococcus sp. (strain RHA1), isolate ro03041; conditions: read-out: pI50 (converted)
[7] = tested on: Rhodococcus HPPD SEQ ID No. 5 (FMP22e); experiment: biochemical; type: biochemical, Rhodococcus sp. (strain RHA1), isolate ro03041
[8] = biological target: (UniProt Q0SF39); experiment: biochemical; type: biochemical, Rhodococcus sp. (strain RHA1), isolate ro02040; conditions: read-out: pI50 (converted)
[9] = tested on: Rhodococcus HPPD SEQ ID No. 19 (FMP23e); experiment: biochemical; type: biochemical, Rhodococcus sp. (strain RHA1), isolate ro02040
[10] = tested on: T1 tobacco plants carrying FMP22e; experiment: Response to bicyclopyrone, T1 tobacco classified by injury; type: in vivo, Nicotiana tabacum; conditions: 100 g AI/ha, 7 DAT; for Class I (number of plants): injury: 0-30%; for Class II (number of plants): injury: 31-100%
Excerpt: (§2) Seeds of wild type tobacco plants and T1 tobacco plants carrying the gene from Rhodococcus sp. (strain RHA1), isolate ro03041 FMP22e coding for HPPD FMP22 or plants carrying the gene from Rhodococcus sp. (strain RHA1) isolate ro02040 FMP23e coding for HPPD FMP23 were sown on MS media (Murashige and Skoog […]) supplemented with […] kanamycin. After 4 weeks, rooted green plantlets were transferred to soil and grown for 3 weeks in the glasshouse as described above then sprayed with a mixture containing bicyclopyrone (100 g Al/ha), ammonium sulfate and methyl ester raps oil. The plants were classified in two categories based on the phenotype developed in response to the herbicide seven days after the treatment. […] In this case, only plants containing at least one T-DNA were exposed to the herbicidal treatment.

[11] = tested on: T1 tobacco plants carrying FMP23e; experiment: as above; type: in vivo, Nicotiana tabacum; conditions: 100 g AI/ha, 7 DAT, FMP23e line 188
Excerpt: as §2

[12] = tested on: Wild type tobacco plants; experiment: as above; type: in vivo, Nicotiana tabacum; conditions: 100 g AI/ha, 7 DAT, line WT
Excerpt: as §2

[13] = biological target: T1, Arabidopsis thaliana HPPD SEQ ID No. 10 (Arabidopsis thaliana, UniProt P93836); experiment: HPPD activity in presence of HPPD inhibitors (pI50, % inhibition); type: biochemical; design: made in house; host or cells: E. coli K-12 BL21 (pQE30-AtHPPD)
T1 sequence (P93836 with tags, fused parts or gaps): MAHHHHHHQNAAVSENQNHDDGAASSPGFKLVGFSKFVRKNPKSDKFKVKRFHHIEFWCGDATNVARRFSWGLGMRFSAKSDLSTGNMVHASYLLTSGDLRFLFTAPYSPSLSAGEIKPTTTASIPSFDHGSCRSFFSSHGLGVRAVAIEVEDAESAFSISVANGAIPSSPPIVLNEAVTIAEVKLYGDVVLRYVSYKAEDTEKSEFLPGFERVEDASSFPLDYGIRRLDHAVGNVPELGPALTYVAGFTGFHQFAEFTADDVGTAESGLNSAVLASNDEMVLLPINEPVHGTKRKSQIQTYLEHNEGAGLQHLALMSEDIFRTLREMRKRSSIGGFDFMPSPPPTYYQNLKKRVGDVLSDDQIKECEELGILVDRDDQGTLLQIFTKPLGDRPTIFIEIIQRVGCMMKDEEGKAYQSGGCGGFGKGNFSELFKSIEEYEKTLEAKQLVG

[14] = tested on: Rhodococcus HPPD SEQ ID No. 19 (FMP23e); experiment: HPLC assay of HPPD in vitro kinetic properties; type: biochemical, Rhodococcus sp. (strain RHA1), isolate ro02040; conditions: substrate HPP, 10 to 400 μM; SEQ ID No. 19
[15] = biological target: T1, Arabidopsis thaliana HPPD SEQ ID No. 10; experiment: HPLC assay of HPPD in vitro kinetic properties; conditions: substrate HPP, 10 to 400 μM; SEQ ID No. 10
Description: All assays were started by the addition of HPPD enzyme to the assay mixture and stopped at a series of times between 0 and 240 s by addition of 200 μl of the reaction mixture to reaction assay tubes containing 20 μl 10% perchloric acid. Precipitated protein was pelleted by a 5 minute centrifugation at 10,000 g. […] For Km and Vmax value determinations the initial rates of the HPPD reaction at different substrate concentrations were determined from plots of HGA formed versus time and fitted to the Michaelis-Menten equation for unireactant enzymes using the ID Business Solutions Ltd. (idbs.com) XLfit software suite.

[16] = SEQ ID No. 5, 5.0 × 10^−6 M inhibitor
[17] = SEQ ID No. 19, 5.0 × 10^−6 M inhibitor

With `CS(=O)(=O)c1cc(C(F)(F)F)ccc1C(=O)c1cnoc1C1CC1` [Isoxaflutole, (5-cyclopropyl-4-isoxazolyl)[2-(methylsulfonyl)-4-(trifluoromethyl)phenyl]methanone] the “% injury” value [1] was 100%, the “transgenic tested shoots showing normal greening” value [2] was 1.8% and the “transgenic tested shoots showing normal greening” value [3] was 1.9%. The “appearance of shoots treated with isoxaflutole” value [4] was “entirely bleached”.
`CS(=O)(=O)c1cc(C(F)(F)F)ccc1C(=O)C(C#N)C(=O)C1CC1` (stereo not drawn) [Diketonitrile, 2-cyano-3-cyclopropyl-1-(2-methylsulphonyl-4-trifluoromethylphenyl)-propane-1,3-dione] was tested, and the Ki [5] was 3.6 µM, the IC50 [6] was 15.8 µM and the “percentage of inhibition compared to activity in absence of the inhibitor” value (shortened to “percentage of inhibition”) [7, 16] was 27%. The IC50 [8] was 25.1 µM and the “percentage of inhibition” value [9, 17] was 11%.
In the case of `Cc1ccc(C(=O)COc2c(C(=O)c3ccc(Cl)c(C)c3Cl)c(C)nn2C)cc1` [Benzofenap], the IC50 [6] is reported as 3.98 µM, the “percentage of inhibition” value [7, 16] is reported as 57% and the IC50 [8] is reported as 2.51 µM. For the same compound, the “percentage of inhibition” value [9, 17] was 72%.
In the case of `COCCOCc1nc(C(F)(F)F)ccc1C(=O)C1=C(O)C2CCC(C2)C1=O` (stereo not drawn) [Bicyclopyrone, 4-hydroxy-3-[[2-[(2-methoxyethoxy)methyl]-6-(trifluoromethyl)-3-pyridinyl]carbonyl]bicyclo[3.2.1]oct-3-en-2-one], the IC50 [6] is reported as 126 µM, the “percentage of inhibition” value [7, 16] is reported as 0% and the IC50 [8] is reported as 63.1 µM. For the same compound, the “percentage of inhibition” value [9, 17] was 1%, the “% of tolerant plant” value ([10]; FMP22e line 64) was greater than 50% and the “Class I (number of plants)” value ([10]; FMP22e line 64) was greater than 100. The “Class II (number of plants)” value ([10]; FMP22e line 64) was 104, the “% of tolerant plant” value ([10]; FMP22e line 65) was 64% and the “Class I (number of plants)” value ([10]; FMP22e line 65) was 86. The “Class II (number of plants)” value ([10]; FMP22e line 65) was 48, the “% of tolerant plant” value ([10]; FMP22e line 163) was 50% and the “Class I (number of plants)” value ([10]; FMP22e line 163) was 45. The “Class II (number of plants)” value ([10]; FMP22e line 163) was 46, the “% of tolerant plant” value [11] was 59% and the “Class I (number of plants)” value ([11]; injury: 0-30%) was 100. For the same compound, the “Class II (number of plants)” value ([11]; injury: 31-100%) was 70, the “% of tolerant plant” value [12] was 0% and the “Class I (number of plants)” value ([12]; Class I: no to light injuries (injury: 0-30%)) was 0. For the same compound, the “Class II (number of plants)” value ([12]; Class II: strong injuries (injury: 31-100%)) was 12.
For `CS(=O)(=O)c1ccc(C(=O)C2C(=O)CCCC2=O)c([N+](=O)[O-])c1` [Mesotrione, 2-[4-(methylsulfonyl)-2-nitrobenzoyl]-1,3-cyclohexanedione], the “percentage of inhibition” value [7] was 54% and the “percentage of inhibition” value [9] was 67%.
For `CS(=O)(=O)c1ccc(C(=O)C2C(=O)CCCC2=O)c(Cl)c1` [Sulcotrione, 2-[2-chloro-4-(methylsulfonyl)benzoyl]-1,3-cyclohexanedione], the pI50 [7] was 5.3, the pI50 [9] was 5.5 and the “percentage of inhibition” value [9] was 73%.
With `Cc1nn(C)c(O)c1C(=O)c1ccc(C(F)(F)F)cc1S(C)(=O)=O` [Pyrasulfotole] the pI50 ([7]; SEQ ID No. 5, 2 mM HPP, 3 minutes incubation) was 4.0, the “percentage of inhibition” value [7, 16] was 0% and the pI50 ([9]; SEQ ID No. 19, 2 mM HPP, 3 minutes incubation) was 4.1. The “percentage of inhibition” value [9, 17] was 2%, the pI50 ([13]; 2 mM HPP, 3 minutes incubation) was 5.4 and the “percentage of inhibition” value ([13]; 5.0 × 10^−6 M inhibitor) was 69%.
Compound `O=C(O)C(=O)Cc1ccc(O)cc1` [HPP, para-hydroxyphenylpyruvate] has a Km [14] of 35 µM, a Vmax [14] of 1.1 µM and a Km [15] of 6.3 µM. For the same compound, the Vmax [15] was 1.2 µM.
In the case of `CS(=O)(=O)c1ccc(C(=O)C2C(=O)CCCC2=O)c(Cl)c1COCC1CCCO1` (stereo not drawn) [Tefuryltrione, 2-[2-chloro-4-(methylsulfonyl)-3-[[(tetrahydro-2-furanyl)methoxy]methyl]benzoyl]-1,3-cyclohexanedione], the IC50 [6] is reported as 6.31 µM, the “percentage of inhibition” value [7, 16] is reported as 43% and the IC50 [8] is reported as 2.51 µM. For the same compound, the “percentage of inhibition” value [9, 17] was 65%.
